Measurements reported in US20040235900A1, “Antimicrobial oxazolifinones with improved pharmacokinetic profile and safety advantages” (priority 2002, published 2004).
Values after ≈ are worked out from the molar mass of the structure shown.

Legend:
[1] = tested on: MRSA 32; assay: Murine assay procedure (systemic MRSA 32 infection, oral treatment); assay type: in vivo, swiss mice; settings: Staphylococcus aureus; oral administration, doses 1 hr and 4 hrs after infection; MRSA 32 infected mice; percentage survival on Day 7
Protocol: Oxazolidinone new chemical entities (NCEs) were evaluated for their in vivo efficacy in a murine infection caused by multi-drug resistant, methicillin resistant Staphylococcus aureus strain, referred to as MRSA 32, a clinical isolate obtained from a hospitalised patient. The procedure used for the murine assay is as follows:
Four weeks old swiss mice of 18-22 gm body weight were infected with MRSA 32 strain suspended in 5% Hog gastric Mucin. The infecting dose of bacteria was set at 1-2×10^8 CFU/animal. The infecting dose was administered in 0.5 ml volume injected into peritonial cavity of mice. The treatment with oxazolidinone NCEs was started one hour after infection by administering 100-200 μl of the suspensions of oxazolidinone compounds in 5% Tween 80 by oral gavage. A repeat dose was similarly administered 3 hrs later. Each oxazolidinone NCE was tested at 2-3 different dosages in the range of 2.5 mg/kg to 20 mg/kg. In each dose group 6 mice were included. As an infection control group 12 mice were infected with MRSA 32 strain without giving any treatment. Normally untreated infected mice die within 24 hrs. due to the systemic spread of infection through out the animal body. […] For compounds affording protection of MRSA infected mice, ED50 dosages were calculated on the basis of percentage survival on Day 7 after infection.
The in-vivo ED50 values using the test compounds were determined essentially by the method as described in PCT WO 95/25106, U.S. Pat. No. 5,668,286 and EP 0 750 618 B1.

[2] = tested on: Enterococcus faecalis ATCC 29212; assay: In-vitro MIC test (agar dilution), E. faecalis; assay type: cell-based; settings: ATCC29212, Mueller Hinton agar, 24 hrs at 35° C., read-out: Minimum Inhibitory Concentrations (MIC) E. faecalis
Excerpt: (§1) The test methods used for verifying the antimicrobial action of compound within the scope of this invention are essentially the same as those described in PCT WO 95/25106, U.S. Pat. No. 5,668,286 and EP 0 750, 618 B1, with the difference that the strains of the organisms used for the MIC determinations in these patents and applications are Staphylococcus aureus ATCC 25923, Staphylococcus epidermidis ATCC 12828, Streptococcus pyogenes ATCC 19615.
(§2) The in-vitro MIC methods of test compounds were determined essentially as described in PCT WO 95/25106, U.S. Pat. No. 5,668,286 and EP 0 750 618 B1.
(§3) Overnight grown cultures of S. aureus organisms in Tryptic Soya broth were diluted in Mueller Hinton Broth to give optical density matching with MacFarland tube 0.5 standard. Cultures were further diluted 1:10 in Mueller Hinton broth. Using Denley's mutipoint inoculator, 10^4 cells were deposited on Mueller Hinton agar (Difco) containing range of 2 fold dilutions of test compounds. These plates were incubated for 24 hrs at 35° C. and MIC results recorded. MIC is defined as minimum drug concentration that inhibits test organisms. For determining MIC of test compounds against Streptococcus pneumoniae, Mueller Hinton agar containing 5% sheep blood was employed.

[3] = tested on: Streptococcus pneumoniae ATCC 49619; assay: In-vitro MIC test (agar dilution, 5% sheep blood), S. pneumoniae; assay type: cell-based; settings: ATCC49619, Mueller Hinton agar containing 5% sheep blood, read-out: Minimum Inhibitory Concentrations (MIC) S. pneumoniae
Excerpt: as §1, §2, §3

[4] = tested on: Methicillin Resistant Staphylococcus aureus MRSA-32; assay: In-vitro MIC test (agar dilution), MRSA-32; assay type: cell-based; settings: Mueller Hinton agar, 24 hrs at 35° C.; for MIC: Staphylococcus aureus, MRSA, read-out: Minimum Inhibitory Concentrations (MIC) MRSA-32
Excerpt: as §1, §2, §3

[5] = Pharmacokinetic study, single oral dose in beagle dog; assay type: in vivo; settings: serum, single oral dose 5 mg/kg p.o., Compound No. 4 and linezolid in 5% Tween, other compounds in cyclodextrin; for AUC(0-t): read-out: AUC (0-24 hr); for concentration at 12 hr: read-out: C-12 hr
Protocol: (§4) Oral (5 mg/kg) and intravenous (5 mg/kg bolus) pharmacokinetic studies were done in dog. Blood samples were collected at time points of 0, 0.08 (not for oral), 0.25, 0.50, 1.0, 1.5, 2.0, 3.0, 4.0, 5.0, 6.0, 8.0, 10.0, 12.0 and 24.0 hours. To facilitate i.v. dosing and collection of blood samples, the dogs were implanted with cannula in cephalic vein. Serum obtained from blood samples was used for HPLC-based analysis.
(§5) Serum samples were extracted by solid phase extraction technique using Water's OASIS HLB cartridges. An HPLC-Diode array detection system was used for analysis. Prepared samples were chromatographed on a YMC-AM reversed phase column (150×4.6 mm ID; 5 μm) using an isocratic mobile phase acetate buffer (50 mmol ammonium acetate pH 6.6) acetonitrile, 66:34% v/v (for a representative compound of the invention, 68:32% v/v for compound Nos. 30, 3, 7 and 11 of U.S. Pat. No. 5,668,286, and 75:25% v/v for linezolid) at a flow rate of 1 ml/min, measured at λmax 254 nm. Independently prepared analytical standards and quality control samples were analyzed with each set of unknown samples.
The pharmacokinetics of a representative compound of the invention following single oral dose administration of the compound in beagle dog is shown in Table 2.

[6] = Pharmacokinetic study, single I.V. bolus dose in beagle dog; assay type: in vivo; settings: iv, single I.V. bolus dose 15 mg/kg (table title), Compound No. 4 and linezolid in 5% Tween, other compounds in cyclodextrin, serum; for concentration at 12 hr: read-out: C-12 hr; for AUC(0-t): read-out: AUC (0-24 hr)
Protocol: as §4, with “Blood” for “Oral (5 mg/kg) and intravenous (5 mg/kg bolus) pharmacokinetic studies were done in dog. Blood”
as §5
The pharmacokinetics of a representative compound of the invention following single I.V. bolus dose administration of the compound in beagle dog is shown in Table 3.

Structure (SMILES) | MIC [2] | MIC [3] | MIC [4] | melting point | further results
CC(C)COC(=O)NC[C@H]1CN(c2ccc(N3CCC(CC#N)CC3)c(F)c2)C(=O)O1 [Compound 10, (S)-N-{3-[4-(4-cyanomethyl-piperidin-1-yl)-3-fluoro-phenyl]-2-oxo-oxazolidin-5-ylmethyl}-isobutylcarbamate] |  |  |  |  | Minimum Inhibitory Concentrations (MIC) MRSA-32 [4]: >16.0 µg/mL
CC(=O)NC[C@H]1CN(c2ccc(N3CCC(C(C#N)C(=O)O)CC3)c(F)c2)C(=O)O1 (stereo partly drawn) [Compound 18, (S)-N-{3-[4-(4-(1-cyano-1-hydroxycarbonyl)-piperidin-1-yl)-3-fluoro-phenyl]-2-oxo-oxazolidin-5-ylmethyl}-acetamide] |  |  |  | 198 to 200 °C | 
CC(=O)NC[C@H]1CN(c2ccc(N3CCC(C(C#N)C#N)CC3)c(F)c2)C(=O)O1 [Compound 19, (S)-N-{3-[4-(4-(1,1-dicyanomethyl)-piperidin-1-yl)-3-fluoro-phenyl]-2-oxo-oxazolidin-5-ylmethyl}-acetamide] | 2 µg/mL (≈ 5.01 µM) | 1 µg/mL (≈ 2.5 µM) | 2 µg/mL (≈ 5.01 µM) | 223 to 225 °C | 
CC(=O)NC[C@H]1CN(c2ccc(N3CCC(O)CC3)c(F)c2)C(=O)O1 [U.S. Pat. No. 5,668,286 (No. 3), (S)-N-{3-[3-fluoro-4-(4-hydroxy-piperidin-1-yl)-phenyl]-2-oxo-oxazolidin-5-ylmethyl}-acetamide] |  |  |  |  | half-life [5]: 1.37 h; AUC(0-t) [5]: 2740 ng·h/mL; Cmax [5]: 1520 ng/mL; concentration at 12 hr [5]: 0 ng/mL; Cmax [6]: 6190 ng/mL; concentration at 12 hr [6]: 0 ng/mL; half-life [6]: 0.98 h; AUC(0-t) [6]: 7530 ng·h/mL
CC(=O)NC[C@H]1CN(c2ccc(N3CCC(=O)CC3)c(F)c2)C(=O)O1 [U.S. Pat. No. 5,668,286 (No. 7), (S)-N-{3-[3-fluoro-4-(4-oxo-piperidin-1-yl)-phenyl]-2-oxo-oxazolidin-5-ylmethyl}-acetamide] |  |  |  |  | concentration at 12 hr [5]: 0 ng/mL; concentration at 12 hr [6]: 0 ng/mL
CC(=O)NC[C@H]1CN(c2ccc(N3CCC(=NO)CC3)c(F)c2)C(=O)O1 [U.S. Pat. No. 5,668,286 (No. 11), (S)-N-{3-[3-fluoro-4-(4-hydroxyimino-piperidin-1-yl)-phenyl]-2-oxo-oxazolidin-5-ylmethyl}-acetamide] |  |  |  |  | concentration at 12 hr [5]: 0 ng/mL; Cmax [6]: 4150 ng/mL; concentration at 12 hr [6]: 0 ng/mL; half-life [6]: 0.16 h; AUC(0-t) [6]: 1320 ng·h/mL
CC(=O)NC[C@H]1CN(c2ccc(N3CCC4(CC3)OCCO4)c(F)c2)C(=O)O1 [U.S. Pat. No. 5,668,286 (No. 30), (S)-N-{3-[4-(1,4-dioxa-8-aza-spiro[4.5]dec-8-yl)-3-fluoro-phenyl]-2-oxo-oxazolidin-5-ylmethyl}-acetamide] |  |  |  |  | half-life [5]: 6.68 h; AUC(0-t) [5]: 47200 ng·h/mL; Cmax [5]: 5310 ng/mL; concentration at 12 hr [5]: 1840 ng/mL; Cmax [6]: 7640 ng/mL; concentration at 12 hr [6]: 1190 ng/mL; half-life [6]: 6.71 h; AUC(0-t) [6]: 45100 ng·h/mL

More lines, main results first:

MIC [2] | MIC [3] | MIC [4] | melting point | Structure (SMILES) | further results
2 µg/mL (≈ 5.61 µM) | 2 µg/mL (≈ 5.61 µM) | 2 µg/mL (≈ 5.61 µM) |  | CC(=O)NC[C@H]1CN(c2ccc(N3CCC(CC#N)CC3)cc2)C(=O)O1 [Compound 2, (S)-N-{3-[4-(4-cyanomethyl-piperidin-1-yl)-phenyl]-2-oxo-oxazolidin-5-ylmethyl}-acetamide] | ED50 [1]: 20 mg/kg
8 µg/mL (≈ 18.7 µM) | 2 µg/mL (≈ 4.67 µM) | 4 µg/mL (≈ 9.34 µM) |  | N#CCC1CCN(c2ccc(N3C[C@H](CNC(=O)C(F)(F)F)OC3=O)cc2F)CC1 [Compound 8, (S)-N-{3-[4-(4-cyanomethyl-piperidin-1-yl)-3-fluoro-phenyl]-2-oxo-oxazolidin-5-ylmethyl}-trifluoroacetamide] | 
2 µg/mL (≈ 5.15 µM) | 2 µg/mL (≈ 5.15 µM) | 2 µg/mL (≈ 5.15 µM) | 148 to 149 °C | CC(=O)NC[C@H]1CN(c2ccc(N3CCC(CC#N)C(C)C3)c(F)c2)C(=O)O1 (stereo partly drawn) [Compound 12, (S)-N-{3-[4-((4-cyanomethyl)-3-methyl-piperidin-1-yl)-3-fluoro-phenyl]-2-oxo-oxazolidin-5-ylmethyl}-acetamide] | 
2 µg/mL (≈ 5.15 µM) | 2 µg/mL (≈ 5.15 µM) | 2 µg/mL (≈ 5.15 µM) | 147 to 148 °C | CC(=O)NC[C@H]1CN(c2ccc(N3CCC(C(C)C#N)CC3)c(F)c2)C(=O)O1 (stereo partly drawn) [Compound 14, (S)-N-{3-[4-(4-(1-cyanoethyl)-piperidin-1-yl)-3-fluoro-phenyl]-2-oxo-oxazolidin-5-ylmethyl}-acetamide] | 
4 µg/mL (≈ 9.94 µM) | 2 µg/mL (≈ 4.97 µM) | 4 µg/mL (≈ 9.94 µM) | 185 to 186 °C | CCC(C#N)C1CCN(c2ccc(N3C[C@H](CNC(C)=O)OC3=O)cc2F)CC1 (stereo partly drawn) [Compound 15, (S)-N-{3-[4-(4-(1-cyanopropyl)-piperidin-1-yl)-3-fluoro-phenyl]-2-oxo-oxazolidin-5-ylmethyl}-acetamide] | 
4 µg/mL (≈ 9.6 µM) | 4 µg/mL (≈ 9.6 µM) | 4 µg/mL (≈ 9.6 µM) | 180 to 182 °C | CCCC(C#N)C1CCN(c2ccc(N3C[C@H](CNC(C)=O)OC3=O)cc2F)CC1 (stereo partly drawn) [Compound 16, (S)-N-{3-[4-(4-(1-cyanobutyl)-piperidin-1-yl)-3-fluoro-phenyl]-2-oxo-oxazolidin-5-ylmethyl}-acetamide] | 
2 µg/mL (≈ 4.95 µM) | 2 µg/mL (≈ 4.95 µM) | 2 µg/mL (≈ 4.95 µM) | 182 to 184 °C | CC(=O)NC[C@H]1CN(c2ccc(N3CCC(C(C#N)CO)CC3)c(F)c2)C(=O)O1 (stereo partly drawn) [Compound 17, (S)-N-{3-[4-(4-(1-cyano-2-hydroxyethyl)-piperidin-1-yl)-3-fluoro-phenyl]-2-oxo-oxazolidin-5-ylmethyl}-acetamide] | ED50 [1]: 20 mg/kg
